PubChem BioAssay (NCI)
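Dose response: 5 concentrations. Exposure: 48 h. Format: 96-well plates. Endpoint: linear interpolation; highest concentration if not reached. The concentration for 50% growth inhibition is given as GI50. At the TGI there is no net growth.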

Assays:
Test in all cases: NCI tumour cell line growth inhibition, 48 h
[1] = tested on: ACHN renal
[2] = tested on: EKVX NSCLC
[3] = tested on: HCT-116 colon
[4] = tested on: HOP-62 NSCLC
[5] = tested on: IGROV1 ovarian
[6] = tested on: NCI-H522 lung
[7] = tested on: SW-620 colon
[8] = tested on: UACC-257 melanoma

| SMILES | GI50 [1] [µM] | TGI [1] [µM] | GI50 [2] [µM] | TGI [2] [µM] | GI50 [3] [µM] | TGI [3] [µM] | GI50 [4] [µM] | TGI [4] [µM] | GI50 [5] [µM] | TGI [5] [µM] | GI50 [6] [µM] | TGI [6] [µM] | GI50 [7] [µM] | TGI [7] [µM] | GI50 [8] [µM] | TGI [8] [µM] |
| --- | --- | --- | --- | --- | --- | --- | --- | --- | --- | --- | --- | --- | --- | --- | --- | --- |
| COc1ccc(-c2cc(-c3ccc(O)cc3)nc3nc(=S)[nH]c(N)c23)cc1 | 19.1 | 65.5 | 13.5 | 60.7 | 15.4 | 31.3 | 20.7 | 47.5 | 18.6 | 73.8 | 8.5 | 27.8 | 16 | 33.3 | 17.2 | 36.3 |
| O=C(CSc1nc2ccc([N+](=O)[O-])cc2[nH]1)Nc1cccc(Cl)c1 | 2.46 | 8.57 | 2.27 | 12.6 | 2.81 | 11.7 | 2.79 | 13 | 3.1 | 18.3 | 1.87 | 8.9 | 3.38 | 19.8 | 1.57 | 6.68 |
| O=C(/C=C/c1ccccn1)c1ccccc1O | 1.92 | 3.51 | 5.22 | 21.8 | 1.85 | 3.75 | 2.4 | 6.15 | 1.76 | 3.36 | 1.56 | 3.08 | 1.92 | 4.02 | 2.22 | 5.71 |
| O=C(O)CN(CC(=O)O)Cc1cc2c(cc1O)Oc1cc(O)c(CN(CC(=O)O)CC(=O)O)cc1C21OC(=O)c2ccccc21 | – | > 100 | – | > 100 | – | > 100 | – | > 100 | – | > 100 | – | > 100 | – | > 100 | – | > 100 |
| COc1ccccc1CNCCCN1C(=O)c2ccc3c4c(ccc(c24)C1=O)C(=O)N(CCCNCCCCNCCCCN)C3=O | 2.82 | > 33.9 | – | – | 0.407 | – | 1.78 | 7.64 | 2.8 | 9.17 | 1.62 | 6.07 | 0.417 | 10.1 | 0.857 | 2.22 |
| C=C1C(=O)O[C@H]2[C@H]1CC/C(COC(=O)/C=C\C(=O)NCc1ccc(Cn3c(=O)sn(-c4ccc(OC)cc4)c3=O)cc1)=C\CC[C@@]1(C)O[C@@H]21 | 0.46 | 1.07 | 0.773 | 1.51 | 0.171 | 0.755 | 2.76 | 10 | 0.505 | 1.21 | 0.648 | 1.56 | 0.272 | 1 | 0.85 | 1.86 |
| CN(C)c1ccc(/C=C(\C#N)c2cc3ccccc3n2C)cc1 | 0.386 | > 100 | 0.636 | > 100 | 0.101 | > 100 | 0.296 | > 100 | 0.143 | > 100 | 0.122 | 1.29 | 0.0898 | > 100 | 2.98 | > 100 |
| CC(C)c1ccc2c(N=Nc3ccc(S(N)(=O)=O)cc3)c(O)[nH]c2c1 | > 14 | > 25 | > 16.6 | > 25 | 11 | > 25 | 5.54 | 12.6 | > 15.5 | > 25 | 7.08 | > 17.8 | > 25 | > 25 | > 21.5 | > 25 |
| COC(=O)C(/C(=N/N)C(=O)Nc1ccc(C)c(C)c1)c1nc2ccc(Cl)cc2[nH]c1=O (stereo unspecified) | – | > 100 | – | > 100 | – | > 100 | – | > 100 | – | > 100 | – | > 100 | – | > 100 | – | > 100 |
| COc1ccc(Nc2c3c4c(cccc4[nH]c2=O)C(=O)c2ccccc2-3)cc1 | 0.0406 | > 100 | 0.0552 | > 100 | < 0.01 | 0.104 | 0.0457 | > 100 | 0.0365 | > 100 | < 0.0175 | – | < 0.0203 | > 100 | 1.21 | > 92.4 |
| CCOc1cc(C=O)c2c(ccc3ccc(OC)c(OC)c32)c1OC | – | > 100 | – | > 100 | – | > 100 | – | – | – | > 100 | – | > 100 | – | – | – | > 100 |
| O=C(CCCCCCC(=O)N/N=C/c1ccc(N(c2ccccc2)c2ccccc2)cc1)NO | 2.28 | 7.39 | 3.82 | 15.2 | 0.349 | 1.97 | 2.21 | 10.2 | 0.505 | 2.74 | 1.92 | 6.92 | 2.49 | 14.3 | 0.39 | 1.57 |
| CCCCCCCCCCCC1=NC(C)(C)CN1CCO | 9.05 | 23.5 | 10.7 | 29.5 | 1.94 | 3.76 | 4.6 | 16.2 | 2.57 | 6.67 | 4.57 | 13 | 1.95 | 3.94 | 3.63 | 11.5 |
| CCOCCc1c(O)nc(SC)[nH]c1=O | > 100 | > 100 | > 100 | > 100 | > 100 | > 100 | > 100 | > 100 | > 100 | > 100 | > 100 | > 100 | > 100 | > 100 | > 100 | > 100 |
| O=C1Nc2cc(Cl)ccc2Oc2cc(Oc3ccccc3)ccc21 | 12.2 | 76.6 | 4.36 | 37.2 | 4.23 | 32 | 5.68 | 20 | 5.42 | 29.9 | 3.51 | > 100 | 2.73 | 16.9 | 16 | > 100 |
| CC1(C)Cc2cccc(OCC(O)CN3CCN(c4ccc(F)cc4)CC3)c2O1 (stereo unspecified) | 9.65 | 25 | 25 | > 50 | 7.34 | 15 | 21.9 | > 50 | 20 | > 50 | 47.8 | > 50 | 14.3 | > 50 | 6.34 | 16.9 |
| CC(C)(C)C(=O)OCOP(=O)(OCOC(=O)C(C)(C)C)C1CCCN(OC(=O)c2ccccc2)C1=O (stereo unspecified) | 0.666 | 11.7 | 0.999 | 50.7 | 0.558 | 6.46 | 1.9 | 18.7 | 0.657 | 3.08 | 0.338 | 1.5 | 1.42 | 24.4 | 3.43 | 22.4 |

| SMILES | GI50 [1] [µM] | TGI [1] [µM] | GI50 [2] [µM] | TGI [2] [µM] | GI50 [3] [µM] | TGI [3] [µM] | GI50 [4] [µM] | TGI [4] [µM] | GI50 [5] [µM] | TGI [5] [µM] | GI50 [6] [µM] | TGI [6] [µM] | GI50 [7] [µM] | TGI [7] [µM] | GI50 [8] [µM] | TGI [8] [µM] |
| --- | --- | --- | --- | --- | --- | --- | --- | --- | --- | --- | --- | --- | --- | --- | --- | --- |
| O=C(Nc1ncc(Cc2ccccc2)s1)c1ccc2c(c1)OCCO2 | 0.0676 | > 100 | 0.133 | > 100 | 0.0405 | > 100 | 0.078 | > 100 | 0.0761 | > 100 | 0.0251 | – | 0.0435 | > 100 | 3.87 | > 100 |
| COc1ccc2c(CC(=O)O)cc(=O)oc2c1 | – | > 100 | – | > 100 | – | > 100 | – | > 100 | – | > 100 | – | > 100 | – | > 100 | – | > 100 |
| CCOC(=O)c1c[nH]c2c(OCc3ccccc3)c3ccccc3c(O)c2c1=O | 4.97 | 33.4 | 6.98 | 52.7 | 3.74 | > 51.8 | 14.4 | 42.9 | 34.4 | > 100 | 13.3 | > 83.9 | 7.95 | > 100 | 2.52 | 6.63 |
| C/C(=N\Nc1ccc2ccccc2n1)c1ccccc1O | – | > 100 | – | > 100 | – | > 100 | – | > 47.9 | – | > 100 | – | > 100 | – | > 100 | – | > 100 |
| SC[C@@H]1COC[C@H](CS)S1 | – | – | – | > 100 | – | > 100 | – | > 100 | – | > 100 | – | > 100 | – | > 100 | – | > 100 |
| COc1cc(-c2cc(/C=C/C(=O)c3ccc4c(c3)OCO4)[nH]n2)cc(OC)c1OC | 1.88 | 3.71 | – | – | – | – | 2.18 | 5.17 | 5 | 62.1 | 1.03 | 2.35 | – | – | 2.46 | 40.3 |
| O=C(c1ccccc1)c1ccc(Cl)c([N+](=O)[O-])c1 | 7.14 | 21.3 | – | – | 4.78 | 18.1 | 13.8 | 28.8 | 7.92 | 23.9 | 1.41 | 6.18 | 5.27 | 21.9 | 6.26 | 21.6 |
| CC1(C)CC[C@]2(C(=O)n3ccnc3)CC[C@]3(C)[C@H](C(=O)C=C4[C@@]5(C)C=C(C#N)C(=O)C(C)(C)[C@@H]5CC[C@]43C)[C@@H]2C1 | < 0.0114 | < 0.0172 | 0.141 | 0.545 | < 0.0112 | 0.0273 | 0.0105 | 0.0402 | < 0.0106 | < 0.0292 | 0.0168 | 0.0585 | – | – | 0.0719 | – |
| Nc1ncnc2c1c(-c1cccc(OCc3ccccc3)c1)cn2C1CC(CN2CCCC2)C1 (stereo unspecified) | 2.93 | 11 | – | – | 1.38 | 5.34 | 1.99 | 5.5 | 2.92 | 7.5 | 1.95 | 3.73 | 1.03 | 3.53 | 0.867 | 2.18 |
| Cc1cc(Cl)ccc1NC(=O)/C(Cl)=C(/Cl)C(=O)O | – | 36.1 | – | 39.9 | – | 37.9 | – | 47.7 | – | – | – | 32.7 | – | 48.9 | – | 36.1 |
| COC1OCC(OS(=O)(=O)c2ccc(C)cc2)C(OC(=O)c2ccccc2)C1OC(=O)c1ccccc1 (stereo unspecified) | 8.83 | > 100 | 45.3 | > 100 | 3.45 | > 100 | 3.18 | > 100 | 6.4 | > 100 | 1.56 | 7.09 | 3.08 | > 100 | – | – |
| CC1(C)CC(=O)C(CC(C(=O)C(=O)Nc2cc(C(F)(F)F)ccc2Cl)C(=O)c2ccco2)C(=O)C1 (stereo unspecified) | – | > 100 | – | > 100 | – | > 100 | – | – | – | > 100 | – | > 100 | – | > 100 | – | > 100 |
| O=C(CCc1nnc(-c2c(Cl)cccc2Cl)o1)c1nc2ccccc2[nH]1 | 11.9 | > 100 | 5.48 | > 100 | 3.33 | 13.5 | 7.67 | 41.3 | 5.26 | 39.1 | – | – | 3.46 | 16.3 | 13.7 | 44.4 |
| CN(CCCCCl)P(=O)(OCc1ccc([N+](=O)[O-])o1)C(F)(F)c1ccc(CC(=O)N[C@@H](CC(=O)O)C(=O)N[C@@H](Cc2ccc(C(F)(F)P(=O)(OCc3ccc([N+](=O)[O-])o3)N(C)CCCCCl)cc2)C(N)=O)cc1 (stereo partly specified) | > 100 | > 100 | 67.7 | > 100 | – | – | > 100 | > 100 | 45.7 | > 100 | 35.7 | > 100 | 81.9 | > 100 | > 100 | > 100 |
| O=C(CCCCC(=O)N/N=C\c1ccccc1Cl)N/N=C\c1ccccc1Cl | 1.91 | > 100 | 1.73 | > 100 | 0.654 | > 100 | 3.22 | 24.6 | 8.79 | > 100 | 2.13 | 41.1 | – | – | 2.54 | > 100 |
| CN(C)CCCNC(=O)c1cc(NC(=O)CCNC(=O)c2ccc3c(c2)C(=O)c2ccccc2C3=O)cn1C | – | – | > 100 | > 100 | > 100 | > 100 | > 100 | > 100 | > 100 | > 100 | > 100 | > 100 | > 100 | > 100 | 21.8 | 95.5 |
